Literature values, collected in patent publication US20240307311A1, “STARCH BASED PRINTABLE MATERIALS” (ROQUETTE FRERES, priority 2021, published 2024).

SMILES | solubility in water (descriptive class)
CCC(C)n1ncn(-c2ccc(N3CCN(c4ccc(OCC5COC(Cn6cncn6)(c6ccc(Cl)cc6Cl)O5)cc4)CC3)cc2)c1=O (centres unmarked) [itraconazole] | practically insoluble in water
Cn1c(=O)c2c(ncn2CC(O)CO)n(C)c1=O (centres unmarked) [diprophylline] | freely soluble in water
